Publication PMC10174618, “Monoterpenoid aryl hydrocarbon receptor allosteric antagonists protect against ultraviolet skin damage in female mice” (Nature Communications, 2023)

Columns and labels:
Assay in all cases: biochemical
Design in all cases: KINOMEscan scanMAX active site-directed competition binding assay, percent of control, 468 kinases
Settings in all cases: competition binding, percent of control
EGFR(S752-I759del) = EGFR(S752-I759del) (Homo sapiens, UniProt P00533, DEL752-759)
Method: (§1) The KINOMEscan^TM screening platform (scanMAX assay) employs a proprietary active site-directed competition binding assay that quantitatively measures the interactions between test compounds (here 100 μM S-carvone) and 468 human protein kinases. The assay was performed at Eurofins DiscoverX Corp. (Fremont, CA, USA). Blocking protein kinase C (PKC) activity was reported to inhibit the transcription of CYP1A1 but to exert no effect on the nuclear translocation of AhR[26], which was also the case here with carvones. Therefore, we tested whether carvones inhibit PKC catalytic activity. […] We also evaluated the interaction between 100 μM S-carvone and 468 human protein kinases, employing KINOMEscan^TM (scanMAX assay), a proprietary active site-directed competition binding assay. The minimal inhibitory threshold used by the screening platform KINOMEscan^TM is 35% of the control kinase activity. Among 468 kinases tested, 467 were above the 35% cutoff. Tyrosine kinase 2 TK2 (JH2 domain pseudokinase) activity was inhibited to 27% of the control activity, but this kinase is not relevant to the regulation of transcription activity (Fig. 5B; Figure S9). Overall, we excluded the possibility that the effects of carvones on AhR signaling are caused indirectly by the inhibition of the human kinome, particularly PKC.

TYRO3 = TYRO3 (Homo sapiens, UniProt Q06418)
Method: as §1

ULK2 = ULK2 (Homo sapiens, UniProt Q8IYT8)
Sequence of ULK2 (Q8IYT8 whole entry): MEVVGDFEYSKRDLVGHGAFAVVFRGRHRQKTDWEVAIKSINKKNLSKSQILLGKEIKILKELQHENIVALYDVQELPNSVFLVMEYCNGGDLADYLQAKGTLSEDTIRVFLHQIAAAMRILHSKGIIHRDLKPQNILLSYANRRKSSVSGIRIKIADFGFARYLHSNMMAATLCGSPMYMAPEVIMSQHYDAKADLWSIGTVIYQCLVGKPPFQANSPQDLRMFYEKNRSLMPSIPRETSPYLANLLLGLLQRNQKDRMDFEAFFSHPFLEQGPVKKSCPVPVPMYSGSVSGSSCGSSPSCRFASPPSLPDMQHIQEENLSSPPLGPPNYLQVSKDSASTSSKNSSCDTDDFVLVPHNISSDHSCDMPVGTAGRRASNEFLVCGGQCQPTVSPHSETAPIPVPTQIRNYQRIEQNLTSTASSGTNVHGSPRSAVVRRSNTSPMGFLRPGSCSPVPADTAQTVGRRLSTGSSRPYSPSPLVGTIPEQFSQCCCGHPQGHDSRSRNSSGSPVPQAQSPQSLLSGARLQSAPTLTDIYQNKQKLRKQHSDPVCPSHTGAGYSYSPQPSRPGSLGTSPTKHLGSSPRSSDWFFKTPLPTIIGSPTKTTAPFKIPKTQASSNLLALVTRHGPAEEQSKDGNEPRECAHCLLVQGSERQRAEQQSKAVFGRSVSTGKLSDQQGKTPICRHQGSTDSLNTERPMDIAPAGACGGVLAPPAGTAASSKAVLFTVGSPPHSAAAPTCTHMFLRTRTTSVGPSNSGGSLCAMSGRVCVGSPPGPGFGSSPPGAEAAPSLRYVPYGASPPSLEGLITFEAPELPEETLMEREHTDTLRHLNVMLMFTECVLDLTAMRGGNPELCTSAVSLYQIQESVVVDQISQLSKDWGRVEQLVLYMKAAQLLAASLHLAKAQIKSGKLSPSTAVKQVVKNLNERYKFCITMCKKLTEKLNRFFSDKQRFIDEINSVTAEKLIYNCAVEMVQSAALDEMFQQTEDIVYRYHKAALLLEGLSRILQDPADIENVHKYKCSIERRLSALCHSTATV
Method: as §1

CSF1R = CSF1R (Homo sapiens, UniProt P07333)
Sequence of CSF1R (P07333 whole entry): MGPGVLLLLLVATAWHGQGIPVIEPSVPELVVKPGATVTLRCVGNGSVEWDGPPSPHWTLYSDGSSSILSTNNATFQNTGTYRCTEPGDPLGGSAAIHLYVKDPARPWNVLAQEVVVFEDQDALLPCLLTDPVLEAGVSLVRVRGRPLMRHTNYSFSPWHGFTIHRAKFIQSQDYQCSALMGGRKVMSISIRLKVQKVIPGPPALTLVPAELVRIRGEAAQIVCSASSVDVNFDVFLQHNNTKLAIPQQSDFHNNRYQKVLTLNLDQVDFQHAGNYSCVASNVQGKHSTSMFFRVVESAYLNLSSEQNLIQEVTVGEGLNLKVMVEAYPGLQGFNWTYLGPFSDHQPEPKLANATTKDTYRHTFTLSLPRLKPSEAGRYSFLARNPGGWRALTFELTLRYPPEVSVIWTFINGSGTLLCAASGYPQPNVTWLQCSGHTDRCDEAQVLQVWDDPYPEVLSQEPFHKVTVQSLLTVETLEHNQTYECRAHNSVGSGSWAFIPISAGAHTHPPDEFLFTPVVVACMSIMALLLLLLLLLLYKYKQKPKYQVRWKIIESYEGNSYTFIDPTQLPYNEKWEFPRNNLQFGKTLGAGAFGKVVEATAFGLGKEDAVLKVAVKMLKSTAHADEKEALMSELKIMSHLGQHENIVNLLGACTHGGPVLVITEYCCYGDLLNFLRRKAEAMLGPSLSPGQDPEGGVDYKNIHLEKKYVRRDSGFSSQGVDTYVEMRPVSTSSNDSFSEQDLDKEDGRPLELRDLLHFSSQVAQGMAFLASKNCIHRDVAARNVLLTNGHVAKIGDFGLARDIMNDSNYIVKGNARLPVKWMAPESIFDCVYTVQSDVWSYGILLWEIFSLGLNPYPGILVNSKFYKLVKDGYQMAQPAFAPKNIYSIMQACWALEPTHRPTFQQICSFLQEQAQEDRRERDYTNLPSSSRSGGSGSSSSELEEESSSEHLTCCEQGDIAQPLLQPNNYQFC
Method: as §1

EGFR(L747-T751del,Sins) = EGFR(L747-T751del,Sins) (Homo sapiens, UniProt P00533, DEL747-750/T751S)
Method: as §1

PIK3CA(Q546K) = PIK3CA(Q546K) (Homo sapiens, UniProt P42336, Q546K)
Method: as §1

MELK = MELK (Homo sapiens, UniProt Q14680)
Method: as §1

EPHA4 = EPHA4 (Homo sapiens, UniProt P54764)
Method: as §1

EGFR(L861Q) = EGFR(L861Q) (Homo sapiens, UniProt P00533, L861Q)
Method: as §1

FYN = FYN (Homo sapiens, UniProt P06241)
Method: as §1

[1] = molecular target: T1, ABL1(M351T)-phosphorylated (Homo sapiens, UniProt P00519, M351T)
T1 construct: phosphorylated
Method: as §1

RIPK2 = RIPK2 (Homo sapiens, UniProt O43353)
Method: as §1

PLK3 = PLK3 (Homo sapiens, UniProt Q9H4B4)
Sequence of PLK3 (Q9H4B4 whole entry): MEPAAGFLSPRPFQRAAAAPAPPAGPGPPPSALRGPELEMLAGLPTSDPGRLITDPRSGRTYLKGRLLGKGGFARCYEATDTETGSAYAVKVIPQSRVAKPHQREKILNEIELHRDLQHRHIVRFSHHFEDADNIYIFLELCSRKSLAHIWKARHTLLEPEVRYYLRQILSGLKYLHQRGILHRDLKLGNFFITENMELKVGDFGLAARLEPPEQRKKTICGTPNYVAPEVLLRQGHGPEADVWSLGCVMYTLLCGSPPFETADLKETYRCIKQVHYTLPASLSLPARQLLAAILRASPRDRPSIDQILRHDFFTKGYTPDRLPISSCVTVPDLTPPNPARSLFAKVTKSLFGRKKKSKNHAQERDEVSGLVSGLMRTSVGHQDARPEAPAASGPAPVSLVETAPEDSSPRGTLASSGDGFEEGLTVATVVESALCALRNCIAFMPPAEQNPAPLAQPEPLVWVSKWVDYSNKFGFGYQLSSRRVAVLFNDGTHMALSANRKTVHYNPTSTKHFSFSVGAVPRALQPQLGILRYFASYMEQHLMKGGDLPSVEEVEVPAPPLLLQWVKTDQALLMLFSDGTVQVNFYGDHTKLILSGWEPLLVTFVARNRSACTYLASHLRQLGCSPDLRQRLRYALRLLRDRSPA
Method: as §1

DMPK = DMPK (Homo sapiens, UniProt Q09013)
Method: as §1

EGFR(E746-A750del) = EGFR(E746-A750del) (Homo sapiens, UniProt P00533, DEL746-750)
Sequence of EGFR(E746-A750del) (P00533 with tags, fused parts or gaps DEL746-750): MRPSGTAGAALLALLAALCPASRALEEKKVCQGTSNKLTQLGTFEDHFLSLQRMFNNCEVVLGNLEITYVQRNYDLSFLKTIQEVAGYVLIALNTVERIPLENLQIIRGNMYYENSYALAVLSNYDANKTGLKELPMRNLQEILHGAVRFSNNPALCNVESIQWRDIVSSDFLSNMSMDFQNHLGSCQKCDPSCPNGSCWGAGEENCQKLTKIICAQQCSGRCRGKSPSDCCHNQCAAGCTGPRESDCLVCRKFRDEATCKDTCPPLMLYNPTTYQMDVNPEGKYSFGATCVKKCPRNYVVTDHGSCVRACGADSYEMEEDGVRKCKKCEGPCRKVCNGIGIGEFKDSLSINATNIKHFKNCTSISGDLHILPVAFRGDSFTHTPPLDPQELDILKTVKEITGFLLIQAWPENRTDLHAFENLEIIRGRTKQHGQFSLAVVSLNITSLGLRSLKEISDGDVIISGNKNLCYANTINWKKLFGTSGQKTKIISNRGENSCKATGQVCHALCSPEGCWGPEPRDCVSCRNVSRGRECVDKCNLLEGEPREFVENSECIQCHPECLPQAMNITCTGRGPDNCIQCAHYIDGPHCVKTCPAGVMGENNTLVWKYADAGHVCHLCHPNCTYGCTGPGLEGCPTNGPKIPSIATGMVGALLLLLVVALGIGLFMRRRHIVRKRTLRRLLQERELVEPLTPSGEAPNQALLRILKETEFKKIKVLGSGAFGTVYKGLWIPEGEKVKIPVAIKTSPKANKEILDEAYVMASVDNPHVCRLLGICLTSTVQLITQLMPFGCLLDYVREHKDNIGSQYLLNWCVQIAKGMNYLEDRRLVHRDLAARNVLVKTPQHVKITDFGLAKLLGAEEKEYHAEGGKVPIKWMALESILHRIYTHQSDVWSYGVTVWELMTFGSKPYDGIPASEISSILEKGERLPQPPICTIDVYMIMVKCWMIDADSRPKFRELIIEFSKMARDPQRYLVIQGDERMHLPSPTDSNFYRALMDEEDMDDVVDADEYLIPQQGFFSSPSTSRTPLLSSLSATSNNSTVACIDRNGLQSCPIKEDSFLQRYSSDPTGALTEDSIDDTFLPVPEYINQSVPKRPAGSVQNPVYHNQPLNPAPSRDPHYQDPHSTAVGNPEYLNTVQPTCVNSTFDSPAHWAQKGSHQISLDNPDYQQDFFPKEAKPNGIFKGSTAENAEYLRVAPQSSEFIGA
Method: as §1

PRKCH = PRKCH (Homo sapiens, UniProt P24723)
Method: as §1

ROCK1 = ROCK1 (Homo sapiens, UniProt Q13464)
Method: as §1

ICK = molecular target: T2, ICK (Homo sapiens, UniProt Q9UPZ9)
T2 construct: gene CILK1
Method: as §1

[2] = molecular target: T3, JAK1(JH1domain-catalytic) (Homo sapiens, UniProt P23458)
T3 construct: JH1domain-catalytic
T3 sequence (P23458 whole entry): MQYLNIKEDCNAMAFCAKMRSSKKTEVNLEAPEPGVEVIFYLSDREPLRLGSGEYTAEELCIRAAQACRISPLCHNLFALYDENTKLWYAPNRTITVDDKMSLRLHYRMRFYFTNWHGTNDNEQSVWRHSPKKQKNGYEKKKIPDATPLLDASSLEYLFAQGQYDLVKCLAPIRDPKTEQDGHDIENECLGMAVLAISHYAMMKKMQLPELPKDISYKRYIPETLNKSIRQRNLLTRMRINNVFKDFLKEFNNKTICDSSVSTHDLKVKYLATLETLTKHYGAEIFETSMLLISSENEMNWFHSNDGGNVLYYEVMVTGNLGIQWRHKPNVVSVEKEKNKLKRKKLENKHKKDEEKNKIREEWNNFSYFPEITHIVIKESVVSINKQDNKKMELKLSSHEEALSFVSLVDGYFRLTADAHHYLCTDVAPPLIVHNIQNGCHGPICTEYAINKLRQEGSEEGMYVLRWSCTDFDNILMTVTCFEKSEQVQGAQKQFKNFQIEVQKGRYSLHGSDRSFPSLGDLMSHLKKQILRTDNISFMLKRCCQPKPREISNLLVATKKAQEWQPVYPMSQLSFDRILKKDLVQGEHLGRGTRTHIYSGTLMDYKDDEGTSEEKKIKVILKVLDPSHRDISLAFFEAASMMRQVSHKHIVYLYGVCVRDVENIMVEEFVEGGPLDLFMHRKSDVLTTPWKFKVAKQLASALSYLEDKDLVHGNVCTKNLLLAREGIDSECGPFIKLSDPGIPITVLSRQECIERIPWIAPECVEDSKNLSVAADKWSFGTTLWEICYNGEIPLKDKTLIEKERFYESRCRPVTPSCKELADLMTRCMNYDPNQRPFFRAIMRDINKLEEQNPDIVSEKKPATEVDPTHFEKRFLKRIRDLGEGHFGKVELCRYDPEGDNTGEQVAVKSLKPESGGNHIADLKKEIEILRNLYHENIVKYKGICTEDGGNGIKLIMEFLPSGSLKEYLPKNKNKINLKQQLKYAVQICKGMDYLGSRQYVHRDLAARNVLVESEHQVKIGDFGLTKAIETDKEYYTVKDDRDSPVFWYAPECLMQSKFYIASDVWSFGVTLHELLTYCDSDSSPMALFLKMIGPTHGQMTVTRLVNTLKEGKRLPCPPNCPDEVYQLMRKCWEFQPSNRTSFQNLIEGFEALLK
Method: as §1

PKAC-beta = molecular target: T4, PKAC-beta (Homo sapiens, UniProt P22694)
T4 construct: gene PRKACB
Method: as §1

DAPK2 = DAPK2 (Homo sapiens, UniProt Q9UIK4)
Method: as §1

- remaining binding at 100 µM (EGFR(S752-I759del)): 66%
- remaining binding at 100 µM (TYRO3): 87%
- remaining binding at 100 µM (ULK2): 75%
- remaining binding at 100 µM (CSF1R): 86%
- remaining binding at 100 µM (EGFR(L747-T751del,Sins)): 78%
- remaining binding at 100 µM (PIK3CA(Q546K)): 83%
- remaining binding at 100 µM (MELK): 99%
- remaining binding at 100 µM (EPHA4): 84%
- remaining binding at 100 µM (EGFR(L861Q)): 65%
- remaining binding at 100 µM (FYN): 90%
- remaining binding at 100 µM [1]: 96%
- remaining binding at 100 µM (RIPK2): 97%
- remaining binding at 100 µM (PLK3): 69%
- remaining binding at 100 µM (DMPK): 94%
- remaining binding at 100 µM (EGFR(E746-A750del)): 62%
- remaining binding at 100 µM (PRKCH): 73%
- remaining binding at 100 µM (ROCK1): 100%
- remaining binding at 100 µM (ICK): 97%
- remaining binding at 100 µM [2]: 100%
- remaining binding at 100 µM (PKAC-beta): 84%
- remaining binding at 100 µM (DAPK2): 79%
Structure (SMILES): C=C(C)[C@H]1CC=C(C)C(=O)C1 [S-carvone]
